Earlier results in patent publication US20080269311A1, “Combination of Dpp-Iv Inhibitors and Compounds Modulating 5-Ht3 and/or 5-Ht4 Receptors” (priority 2004, published 2008).

Target: T1, 5-HT3 receptor subtype (Homo sapiens, UniProt P46098)
T1 sequence (P46098 24-478): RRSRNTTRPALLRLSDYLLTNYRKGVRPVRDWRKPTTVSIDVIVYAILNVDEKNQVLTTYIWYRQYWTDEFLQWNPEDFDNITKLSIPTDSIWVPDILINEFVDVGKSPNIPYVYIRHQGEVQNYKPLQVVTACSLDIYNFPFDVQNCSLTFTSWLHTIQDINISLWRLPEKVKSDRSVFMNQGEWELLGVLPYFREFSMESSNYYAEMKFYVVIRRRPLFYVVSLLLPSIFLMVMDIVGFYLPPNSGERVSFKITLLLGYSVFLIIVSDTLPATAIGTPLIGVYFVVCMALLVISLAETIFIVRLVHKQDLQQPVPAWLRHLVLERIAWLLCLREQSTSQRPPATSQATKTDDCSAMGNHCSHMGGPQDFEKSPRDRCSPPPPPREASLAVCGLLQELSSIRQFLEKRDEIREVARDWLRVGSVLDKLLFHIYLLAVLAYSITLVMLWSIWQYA

Q: Which “binding to or stimulation of the 5-HT3 receptor subtype (selectivity)” value does the source give for `CCCCCNC(=N)NN=Cc1c[nH]c2ccc(OC)cc12` [Tegaserod, 3-(5-methoxy-1H-indol-3-yl-methylene)-N-pentylcarbazimidamide] here?
A: The value was “does neither bind to nor stimulate”.
